Experimental findings from patent US9668960B2, “Methods useful in studying or modulating skin or hair pigmentation, plant extracts for use in compositions and cosmetic care method” (L V M H RECHERCHE, priority 2008, dated 2017) are described below.

Assay type in all cases: cell-based
Assay [1] deals with Normal human epidermal melanocytes (F52; p5). Description: Melanin assay (melanogenesis) in normal pigmented human melanocytes. Conditions: 72 h; for Changes in melanin levels, F52 EM % change: L-18 0.001%, L-19 1%, L-20 0.5%, L-21 10 μg/ml, L-22 1%, L-23 0.05 μg/ml, IBMX 100 μM, NH4Cl 100 μM, niacinamide 10 μM, vs basal; for Melanin content, F52 EM (pg/cell): same doses as E1, basal 35.63. As for the experimental part:
Cells were then washed 3-times with sterile PBS and supplemented with 350 μl of either fresh serum-free RPMI medium (melanoma cells) or starved serum-free and BPE-free melanocyte medium (EM) and incubated at 37° C. and 5% CO2 for 24 h. Cells were then washed with sterile PBS 3-times and incubated with IBMX 1×10^-4 M at 37° C. and 5% CO2 for 12, 24, and 72 h. Cells were then gently washed 3-times with sterile PBS and fixed in ice-cold methanol for 10 minutes at -20° C. Slides were stored at -20° C. until immunocytochemistry was performed. […] The melanin standards were pipetted into a 96 well plate to produce a calibration curve for the assessment of melanin content in the test samples. 400 μl of 1 M NaOH was added to each cell pellet and dissolved on a heat block (100° C.) for 15 minutes. The pellets were vortexed vigorously and the solubilized pellet was pipetted into the same 96-well plate. The optical densities of the sample were read at […] on a DYNEX REVELATION 4.02 program. Melanin content of each test sample was read from the calibration curve. […] In addition IBMX and NH4Cl (positive melanocytic modulators) and niacinamide (negative modulator) were used as controls. Visible change was not particularly evident in normal melanocyte due to their already high basal melanin levels (FIG. 1). By contrast, visible change was evident in melanoma cells basal melanin levels were low (FIG. 2). […] Normal human epidermal melanocytes (Female-52; p5) were treated for 72 h with L-18 (0.001%), L-19 (1%), L-20 (0.5%), L-21 (10 μg/ml), L-22 (1%) and L-23 (0.05 μg/ml). Controls: Melanocytic modulators: IBMX (100 μM), NH4Cl (100 μM), and niacinamide (10 μM). (A) Melanin content was determined spectro-photometrically (475 nm) after sodium hydroxide solubilise (B) Visible change was not particularly evident in these cells due to their already high basal melanin levels. Results were expressed as change in melanin content (pg/cell) compared to unstimulated control levels. Means are ±SEM of 3 independent experiments with *P<0.05, **P<0.01, ***P<0.001. NS-Not Significant

The test system of assay [2] is Myo-X. Description: Myo-X protein expression by Western blotting in normal human melanocytes. Conditions: EM (F39), 12 h. As for the experimental part:
Western blot analysis: EMc in a confluent T225 flask were trypsinised and seeded into T25 flask with full medium and allowed to attach overnight. 24 h before treatment the medium was replaced with starved medium for 24 h. Cells were washed 3-times with sterile PBS, and incubated in starved medium alone, or L-18 (0.001%), L-19 (1%), L-20 (0.5%), L-21 (10 μg/ml), L-22 (1%) and L-23 (0.05 μg/ml) for 12 and 72 h. Controls included IBMX (100 μM) and niacinamide (10 μM).
40 μg of total protein from each cell extract was electrophoresed in reducing SDS-8%-PAGE and blotted on PVDF membranes (Millipore Corporation, Bedford, Mass.). […]
After extensive washes the blots were incubated with horseradish peroxidise conjugated secondary antibodies for 2 h. […] The chemiluminescent signal was detected by exposing the blot strips to Kodak XRA X-ray film (Kodak, UK) at various exposure times, followed by development in developing solution (Kodak, UK) until bands appeared, rinsed in tap water, fixed in the fixer (Kodak, UK) until the film turned blue, then rinsed with tap water and allowed to dry. […]
(A) Cell extracts were analyzed by Western blotting using anti-Myo-X and anti-β-actin as a loading control.
(B) Densitometric analysis of Myo-X and actin band intensities expressed as percentage change compared to unstimulated controls. […]

Assay [3] deals with tyrosinase. The assay can be described thus: Tyrosinase activity in normal human melanocyte and keratinocyte co-culture (EM:KC). Particulars: 72 h; for % Change in EM Tyrosinase Activity of stimulated EM vs. stimulated EM-EK) level (i.e. 12.16): co-culture versus monoculture under the same stimulus; for % Change in EM Tyrosinase Activity vs. Basal EM level (i.e. 0), EM-EK: matched EM-EK co-culture (F52), L-18 0.001%, L-23 0.05 μg/ml, IBMX 100 μM, niacinamide 10 μM, basal co-culture +12.16. As for the experimental part: The cells were prepared for SDS-PAGE and transblotted onto PVDF membranes. 70 μg of un-reduced protein extract without boiling was pipetted into the appropriate wells of 8% SDS-PAGE gels. […] The L-DOPA reaction was stopped by washing the membrane in distilled water and the membrane was scanned. […] Normal human epidermal melanocyte culture (Female-52; p5) and matched co-culture […] MC-KC were treated for 72 h with L-18 (0.001%), L-23 (0.05 μg/ml). Controls: Melanocytic modulators: IBMX (100 μM), and niacinamide (10 μM). Negative control lane: Keratinocytes only (A) Protein extracts were electroblotted and membranes stained with L-DOPA for the estimation of tyrosinase activity. (B) Densitometric scanning of band intensities and values were expressed as the fold increase compared to unstimulated control levels. Means are ±SEM of 3 independent experiments with *P<0.05, **P<0.01, ***P<0.001.

With `NC(=O)c1cccnc1` [niacinamide], in assay [1], the “Changes in melanin levels, F52 EM % change” value is listed as −4.01% and the “Melanin content, F52 EM (pg/cell)” value is given as “(34.2) pg/cell”. For the same molecule, in assay [2] (niacinamide 10 μM), the “Myo-X expression reduced by” value is given as 60%. In assay [3], the “% Change in EM Tyrosinase Activity of stimulated EM vs. stimulated EM-EK) level (i.e. 12.16)” value is reported as −18.84% and the “% Change in EM Tyrosinase Activity vs. Basal EM level (i.e. 0), EM-EK” value is reported as −20.50%.
As to `CC(C)Cn1c(=O)n(C)c(=O)c2[nH]cnc21` [IBMX], in assay [1], the “Changes in melanin levels, F52 EM % change” value is “+74.57%” and the “Melanin content, F52 EM (pg/cell)” value is reported as “(62.2) pg/cell”. Besides, the “increase in Myo-10 expression, fold versus untreated controls” value in assay [2] (IBMX 100 μM) was determined as 3 fold. In assay [3], the “% Change in EM Tyrosinase Activity of stimulated EM vs. stimulated EM-EK) level (i.e. 12.16)” value is on record as “+23.57%” and the “% Change in EM Tyrosinase Activity vs. Basal EM level (i.e. 0), EM-EK” value is recorded as “+93.41%”.
